These results are taken from patent US7202258B2, “α- and β-amino acid hydroxyethylamino sulfamic acid derivatives useful as retroviral protease inhibitors” (G.D. Searle & Co., priority 1992, dated 2007).

pEC50, pIC50: −log10 of the molar value. Where two headings read alike, the source gives them in different places.

For one data set, the target named is T1, HIV protease (Human immunodeficiency virus type 1 group M subtype B, UniProt P04585).
T1 construct: HIV protease is diluted in the assay buffer to a final enzyme concentration of 12.3 nanomolar, based on a molecular weight of 10,780
Description: HIV protease enzyme assay (fluorescence, substrate 2-Ile-Nle-Phe(p-NO2)-Gln-ArgNH2). It counts as biochemical. The text has this: The compounds of the present invention are effective HIV protease inhibitors. Utilizing an enzyme assay as described below, the compounds set forth in the examples herein disclosed inhibited the HIV enzyme. The preferred compounds of the present invention and their calculated IC50 (inhibiting concentration 50%, i.e., the concentration at which the inhibitor compound reduces enzyme activity by 50%) values are shown in Table 17. The enzyme method is described below. The substrate is 2-Ile-Nle-Phe(p-NO2)-Gln-ArgNH2. The positive control is MVT-101 (Miller, M. et al, Science, 246, 1149 (1989)]The assay conditions are as follows: • Assay buffer: 20 mM sodium phosphate, […] • 20% glycerol • 1 mM EDTA • 1 mM DTT • 0.1% CHAPS
The above described substrate is dissolved in DMSO, then diluted 10 fold in assay buffer. Final substrate concentration in the assay is 80 μM.
HIV protease is diluted in the assay buffer to a final enzyme concentration of 12.3 nanomolar, based on a molecular weight of 10,780.
The final concentration of DMSO is 14% and the final concentration of glycerol is 18%. The test compound is dissolved in DMSO and diluted in DMSO to 10× the test concentration; 10 μl of the enzyme preparation is added, the materials mixed and then the mixture is incubated at ambient temperature for 15 minutes. The enzyme reaction is initiated by the addition of 40 μl of substrate. The increase in fluorescence is monitored at 4 time points (0, 8, 16 and 24 minutes) at ambient temperature. Each assay is carried out in duplicate wells.

The next data set deals with CEM cells. Description: Intrinsic toxicity of test compound in uninfected CEM cells (MTT). It counts as cell-based. The settings on record: human, 7 days. The source says:
Methods, 20, 309–321 (1988). […] A Frozen culture c.

The subject of another data set is HIV-1. The experiment in a line: microbe, parasite or virus in culture. To be noted: Human immunodeficiency virus 1, CCRF-CEM, 168 h, read-out: EC50 (nm).
Setting [1] is: Table 18, compounds of Table 1C, read-out: IC50 or % Inhibition: IC50.

Description for HIV-1: Assays were performed in 96-well tissue culture plates. CEM cells, a CD4^+ cell line, were grown in RPMI-1640 medium (Gibco) supplemented with a 10% fetal calf serum and were then treated with polybrene (2 μg/ml). An 80 μl volume of medium containing 1×10^4 cells was dispensed into each well of the tissue culture plate, no each well was added a 100 μl volume of test compound dissolved in tissue culture medium (or medium without test compound as a control) to achieve the desires final concentration and the cells were incubated at 37° C. for 1 hour. […] HIV-1 was diluted in culture medium to a concentration of 5×10^4 TCID50 per ml (TCID50=the dose of virus that infects 50% of cells in tissue culture), and a 20 μL volume of the virus sample (containing 1000 TCID50 of virus) was added to wells containing test compound and to wells containing only medium (infected control cells). Several wells received culture medium without virus (uninfected control cells). Likewise, the intrinsic toxicity of the test compound was determined by adding medium without virus to several wells containing test compound.
In experiments 2 and 4 the final concentrations of test compounds were 1, 10, 100 and 500 μg/ml. Either azidothymidine (AZT) or dideoxyinosine (ddI) was included as a positive drug control. […] DMSO was added to all control wells at an appropriate concentration.
Following the addition of virus, cells were incubated at 37° C. in a humidified, 5% CO2 atmosphere for 7 days. Test compounds could be added on days 0, 2 and 5 if desired. On day 7, post-infection, the cells in each well were resuspended and a 100 μl sample of each cell suspension was removed for assay. A 20 μL volume of a 5 mg/ml solution of 3-(4,5-dimethylthiazol-2-yl)-2,5-diphenyltetrazolium bromide (MTT) was added to each 100L cell suspension, and the cells were incubated for 4 hours at 27° C. in a 5% CO2 environment. […] To each sample was added 100 μl of 10% sodium dodecylsulfate in 0.01 N HCl to lyse the cells, and samples were incubated overnight. The absorbance at 590 nm was determined for each sample using a Molecular Devices microplate reader. Absorbance values for each set of wells is compared to assess viral control infection, uninfected control cell response as well as test compound by cytotoxicity and antiviral efficacy.

In the case of `CCCCNS(=O)(=O)N(CC(C)C)C[C@@H](O)[C@H](Cc1ccccc1)NC(=O)[C@@H](NC(=O)CN(C)C)C(C)(C)C` [Entry 1], at HIV protease, the negative logarithm of the IC50 (pIC50) was 7.40. The “TD50 (nm)” value in the data set with CEM cells is given as 56,000 nM. The pEC50 in the data set on HIV-1 was 6.78.

As for `CC(C)CN(C[C@@H](O)[C@H](Cc1ccccc1)NC(=O)OCc1ccccc1)S(=O)(=O)N1CCCCC1` [G], the pIC50 at HIV protease (setting [1]) was 7.18.

For `COc1ccc(COC(=O)NC[C@@H](C)C(=O)N[C@@H](Cc2ccccc2)[C@H](O)CN(CC(C)C)S(=O)(=O)NC(C)(C)C)cc1` [Entry 5], the pIC50 on HIV protease (Table 17, read-out: IC50) was 7.89.

At HIV protease, `CCCCNS(=O)(=O)N(CC(C)C)C[C@@H](O)[C@H](Cc1ccccc1)NC(=O)[C@H](CC(N)=O)NC(=O)c1ccc2ccccc2n1` [Entry 2] had a pIC50 of 8.30. Also, the “TD50 (nm)” value with CEM cells is 65,000 nM. In addition, the pEC50 in the data set on HIV-1 was 7.64.

On to `CC(C)(C)NS(=O)(=O)N(CC1CCCCC1)C[C@@H](O)[C@H](Cc1ccccc1)NC(=O)OCc1ccccc1` [I], for which, on HIV protease (setting [1]), the pIC50 was 5.77.

Turning to `COC(=O)C(C)(C)NS(=O)(=O)N(CC(C)C)C[C@@H](O)[C@H](Cc1ccccc1)NC(=O)OCc1ccccc1` [J], on HIV protease (setting [1]), the pIC50 is 5.57.

On HIV protease, `CC(C)CN(C[C@@H](O)[C@H](Cc1ccccc1)NC(=O)[C@H](CC(N)=O)NC(=O)c1ccc2ccccc2n1)S(=O)(=O)N1CCN(C)CC1` [Entry 3] had a pIC50 of 8.52. Further, in the data set with CEM cells, the “TD50 (nm)” value is given as 28,000 nM. For the same molecule, in the data set with HIV-1, the pEC50 was 7.38.

`CC(C)CN(C[C@@H](O)[C@H](Cc1ccccc1)NC(=O)[C@H](CC(N)=O)NC(=O)c1ccc2ccccc2n1)S(=O)(=O)NC(C)(C)C` [Entry 4] had a pIC50 against HIV protease of 8.70. Moreover, the “TD50 (nm)” value with CEM cells was 39,000 nM. Moreover, the pEC50 in the data set on HIV-1 is greater than 7.82.
